According to patent US11351224B2, “Pharmaceutical composition for preventing and treating transplant rejection” (IUCF-HYU (INDUSTRY-UNIVERSITY COOPERATION FOUNDATION …, priority 2015, dated 2022):

Experiments:
[1] = tested on: spleen cells activated by anti-CD3 and anti-CD28 antibodies; test: IL-2 expression inhibition in spleen cells activated by anti-CD3 and anti-CD28 antibodies (ELISA); assay type: cell-based, mouse; conditions: for IL-2 expression inhibitory efficiency compared to WT: 0.5, 1, 2 or 5 μM
Protocol: The spleen cells activated by anti-CD3 and anti-CD28 antibodies were treated with 1 μM of each of PBS, the dNP2-ctCTLA-4 fusion product and the TAT-ctCTLA-4 fusion product, and IL-2 expression inhibitory efficiency was measured by ELISA and shown in FIG. 5.
First, a 96-well plate was coated at a concentration of 0.1 μg/well with anti-CD3 (anti-mouse CD3) and anti-CD28 (anti-mouse CD28) monoclonal antibodies at 37° C. for 5 hours, spleen cells were isolated from 7-week-old C57BL/6, and the isolated spleen cells were suspended to be single cells. The spleen cells suspended through the process were seeded at 2.5×10^5 on each well coated with anti-CD3 (anti-mouse CD3) and anti-28 (anti-mouse CD28) monoclonal antibodies, and were treated with 1 μM PBS, the dNP2-ctCTLA-4 fusion product and the TAT-ctCTLA-4 fusion product, and then activated for 24 hours.
The spleen cells activated by the anti-CD3 and anti-CD28 antibodies were each treated with the dNP2-ctCTLA-4 fusion product and the dNP2-EGFP fusion product, and IL-2 expression inhibitory efficiency was measured by ELISA and shown in FIG. 6A. At this time, ELISA was conducted using the kit produced by Biolegend Corporation in accordance with the standard protocol provided by the manufacturer. In addition, spleen cells activated by PMA/ionomycin were treated with the dNP2-ctCTLA-4 fusion product and the dNP2-EGFP fusion product, and IL-2 expression inhibitory efficiency was measured by ELISA and is shown in FIG. 6B.
At this time, the activated spleen cells were activated with the anti-CD3/CD28 antibody or PMA/ionomycin in the presence of 1 μM PBS, the dNP2-ctCTLA-4 fusion product or dNP2-EGFP fusion product for 24 hours.
The spleen cells activated by the anti-CD3 and anti-CD28 antibodies were each treated with 0.5, 1, 2 or 5 μM WT, 1YF, 2YF and DYF, and IL-2 expression inhibitory abilities were measured by ELISA and are shown in FIG. 8.
At this time, the activated spleen cells were activated with anti-CD3/CD28 antibody in the presence of 1 μM PBS, 0.5, 1, 2 or 5 μM WT, 1YF, 2YF, DYF for 24 hours.
The spleen cells activated by anti-CD3 and anti-CD28 antibodies were each treated with 0.1, 0.5, 1, 2 or 5 μM dNP2-TAMRA fusion product, dNP2-CTLA-4 fusion product and dNP2-ctCTLA-4-fm3 fusion product, and IL-2 expression inhibitory efficiency was measured by ELISA and is shown in FIG. 11. At this time, the activated spleen cells were activated with the anti-CD3/CD28 antibody in the presence of 1 μM PBS, 0.1, 0.5, 1, 2 or 5 μM dNP2-TAMRA fusion product, dNP2-CTLA-4 fusion product and dNP2-ctCTLA-4-fm3 fusion product for 24 hours.

[2] = tested on: primary mouse CD4-T-cells; test: Intracellular transfer efficiency of ctCTLA-4 peptide and CPP-ctCTLA-4 fusion products in mouse spleen cells; assay type: cell-based; conditions: 1 μM, one hour, anti-HA staining
Protocol: Jurkat T-cells were cultured at a density of 5.0×10^5 cells/well on a 24-well plate in RPMI 1640 medium. After the cells were seeded, respective proteins were added at designated times. After culturing, the cells were collected and washed three times with phosphate buffered saline (PBS). Intracellular fluorescence was analyzed with a fluorescence-activated cell sorting (FACS) Canto II flow cytometer (BD Bioscience) and data were analyzed using FlowJo software (Tree Star, INC.). The spleen isolated from the 6-week-old C57BL/6 mice were loaded on a 60 mm×15 mm cell culture dish containing 3 ml of PBS. A single cell suspension was physically prepared using a cell strainer having pores with a size of […], 10 ml of fresh PBS was added thereto and the resulting mixture was centrifuged. […]
Specifically, the transfer efficiency was measured using “3) In vitro transfer efficiency” in the test method, which will be briefly described below.
Mouse spleen cells were cultured together with 1 μM of a ctCTLA-4 peptide, or a dNP2-ctCTLA-4 or Hph-1-ctCTLA-4 fusion product for one hour, and the ctCTLA-4 peptide or CPP-linked ctCTLA-4 fusion products, which had been transferred into cells, were stained with anti-HA antibodies. […] The cells were harvested and intracellular fluorescence was measured using a flow cytometer to measure ctCTLA-4 protein introduction efficiency in primary mouse CD4-T-cells.

CD4 T-cells = test: Inhibition of CD4 T-cell activation (CD25 expression) in mouse spleen cells (FACS); assay type: cell-based
Protocol: The present test was conducted to check whether or not the dNP2-TAMRA, dNP2-ctCTLA-4 fusion product and dNP2-ctCTLA-4-fm3 fusion product according to the present invention could inhibit activation of CD4 T-cells in the mouse model. At this time, CD25 was an activation marker which has an increasing expression level when T-cells were activated, and whether or not activation of CD4 T-cells was inhibited based on the amount of expressed CD25 was determined. Specifically, the test method was as follows.
A 96-well plate was coated with 0.1 μg of anti-CD3 and anti-CD28 antibodies in a cell incubator at 37° C. under […] for 5 hours. Then, isolated spleen cells of mice were seeded in a density of 2.5×10^5 on each well. The cells were treated with PBS or 0.1, 0.5, 1, 2 or 5 μM dNP2-TAMRA, dNP2-ctCTLA-4 or dNP2-ctCTLA-4-Fm, and then cultured in a cell incubator at 37° C. under […] for 24 hours. Then, the cells were stained with APC fluorescence-conjugated anti-CD4 mAb and PE fluorescence-fused anti-CD25 mAb at 4° C. for 20 minutes. Then, the cells produced through the aforementioned process were analyzed by a flow cytometer (FACS) to compare amounts of expressed CD25.

[3] = 0.1, 0.5, 1, 2 or 5 μM, 24 hours

Substance: 1YF: ctCTLA-4 variant, Y residue of the 1Y part substituted by F (KMLKKRSPLTTGVFVKMPPTEPECEKQFQPYFIPIN; ctCTLA-4 1YF)
- IL-2 expression inhibitory efficiency compared to WT ([1]; 24 hours): significant deterioration in IL-2 expression inhibitory efficiency

Substance: 2YF: ctCTLA-4 variant, Y residue of the 2Y part substituted by F (KMLKKRSPLTTGVYVKMPPTEPECEKQFQPFFIPIN; ctCTLA-4 2YF)
- IL-2 expression inhibitory efficiency compared to WT ([1]; 24 hours): significant deterioration in IL-2 expression inhibitory efficiency

Substance: DYF: ctCTLA-4 variant, Y residues of both 1Y and 2Y parts substituted by F (KMLKKRSPLTTGVFVKMPPTEPECEKQFQPFFIPIN; ctCTLA-4 DYF)
- IL-2 expression inhibitory efficiency compared to WT ([1]; 24 hours): significant deterioration in IL-2 expression inhibitory efficiency

Substance: Hph-1-ctCTLA-4: fusion product of cell-penetrating peptide Hph-1 (Sequence ID No. 9) linked to the N-end of ctCTLA-4 peptide (YARVRRRGPRRKMLKKRSPLTTGVYVKMPPTEPECEKQFQPYFIPIN; Hph-1; ctCTLA-4)
- intracellular transfer efficiency [2]: further improved

Substance: ctCTLA-4-fm1: peptide fragment having an amino acid sequence represented by Sequence ID No. 2 (YVKMPPTEPE; ctCTLA-4 fm1)
- IL-2 expression inhibitory effects of ctCTLA-4 fragment peptides [1]: excellent IL-2 expression inhibitory effects

Substance: ctCTLA-4-fm2: peptide fragment having an amino acid sequence represented by Sequence ID No. 3 (YFIPIN; ctCTLA-4 fm2)
- IL-2 expression inhibitory effects of ctCTLA-4 fragment peptides [1]: excellent IL-2 expression inhibitory effects

Substance: ctCTLA-4-fm3: fusion peptide of Sequence ID No. 4, wherein Sequence ID No. 2 is combined with Sequence ID No. 3 (YVKMPPTEPEYFIPIN; ctCTLA-4 fm3)
- IL-2 expression inhibitory effects of ctCTLA-4 fragment peptides [1]: excellent IL-2 expression inhibitory effects

Substance: ctCTLA-4: peptide of Sequence ID No. 1, 188th to 213th amino acid of the CTLA-4 protein cytoplasmic domain (KMLKKRSPLTTGVYVKMPPTEPECEKQFQPYFIPIN; ctCTLA-4)
- intracellular transfer efficiency [2]: excellent intracellular transfer efficiency

Substance: dNP2-ctCTLA-4-fm3: fusion product of fusion peptide ctCTLA-4-fm3 (Sequence ID No. 4) and cell-penetrating peptide dNP2 (Sequence ID No. 8) (KIKKVKKKGRKGSKIKKVKKKGRKYVKMPPTEPEYFIPIN; dNP2; ctCTLA-4 fm3)
- IL-2 expression inhibition [1, 3]: excellent inhibitory activity against IL-2 expression, comparable to the dNP2-ctCTLA-4 fusion protein
- intracellular transfer efficiency (FIG. 10) (CD4 T-cells; 0.1 μM): excellent intracellular transfer efficiency
- CD25 expression in CD4 T-cells (CD4 T-cells; [3]): efficacy similar thereto
